Experimental data as given in patent US9006252B2, “Fused multicyclic compounds as protein kinase inhibitors” (National Health Research Institutes, priority 2008, dated 2015).
Where “and” joins values, the source holds several entries; their conditions need not be identical. Equal values may be shown once. Read-outs that look alike come from different tables or passages of the source.

Key:
Aurora A = biological target: T1, Aurora A (Homo sapiens, UniProt O14965); assay: Aurora Kinase A luminescent kinase assay (Kinase-Glo); format: biochemical; settings: IC50 values (concentration of a test compound at which activity of 50% of Aurora A is inhibited), GST-tAurora A (123-401aa) fusion protein
T1 construct: GST-tAurora A (123-401aa) fusion protein obtained above; made in house; host or cells: Sf9 insect cells (baculovirus, pBacPAK8)
T1 sequence (O14965 123-401): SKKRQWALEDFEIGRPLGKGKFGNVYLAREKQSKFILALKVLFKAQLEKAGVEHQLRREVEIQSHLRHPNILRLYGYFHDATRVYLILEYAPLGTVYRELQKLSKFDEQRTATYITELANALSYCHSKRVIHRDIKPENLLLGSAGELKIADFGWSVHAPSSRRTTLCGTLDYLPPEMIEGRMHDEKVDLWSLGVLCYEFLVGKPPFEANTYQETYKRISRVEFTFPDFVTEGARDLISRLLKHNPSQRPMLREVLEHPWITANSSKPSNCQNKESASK
Description: The Aurora A catalytic domain with an N-terminal GST tag was constructed in pBacPAK8 plasmid and expressed in sf9 cells. […] To concentrate GST-tAurora A, buffer was replaced with Tris buffer (100 mM Tris (pH 7.5), 300 mM NaCl, 1 mM EDTA, 4 mM DTT) using Amicon ultra-15 (MWCO:30K, Millipore) to 2.4 mg/ml. After the addition of equal volume of glycerol and 0.04% Triton X-100, the proteins were stored aliquoted at −80° C.
Briefly, a test compound, enzyme, substrate-tetra(LRRWSLG), DTT and ATP were dissolved in Aur buffer (50 mM Tris-HCl pH 7.4, 10 mM NaCl, 10 mM MgCl2, and 100 μg/ml BSA) individually before the assay. […] 5 μM ATP (5 μl), 1 mM DTT (5 μl) and 0.1 mM tetra(LRRWSLG) peptide substrate (5 μl) were added into the reactions of test compounds and GST-tAurora A. The reactions were incubated at 37° C. for 90 min. 50 μl of Kinase-Glo Plus Reagent (V3771, Promega) was added into the reactions, followed by the incubation at 25° C. for 20 min.

HCT-116 cells = assay: HCT-116 cell viability, MTS assay; format: cell-based; settings: Homo sapiens, HCT-116, 96 h, read-out: IC50 values, HCT-116 cell viability
Description: HCT-116 cell viability was examined by the MTS assay (Promega, Madison, Wis., USA). 2000 HCT-116 cells in 100 μL McCoy's 5a medium were seeded in each well of a 96-well plate. After 96-h incubation with a test compound, the cells were incubated with 20 μL of a MTS/PMS mixture (MTS/PMS ratio: 20:1) for 2 h at 37° C. in a humidified incubator with 5% CO2 to allow viable cells to convert the tetrazolium salt (MTS) into formazan. The amount/concentration of formazan, which indicates the number of live cells, was determined by measuring the absorbance at 490 nm using a PerkinElmer Victor2 plate reader (PerkinElmer, Shelton, Conn., USA).

Structure (SMILES)	IC50 (Aurora A)	IC50 (HCT-116 cells)	IC50 (HCT-116 cells; 96-h incubation, MTS)
O=C(Nc1ccccc1)Nc1ccc(CCNc2ncnc3oc(-c4ccccc4)nc23)cc1 [Compound 7, 1-Phenyl-3-{4-[2-(2-phenyl-oxazolo[5,4-d]pyrimidin-7-ylamino)-ethyl]-phenyl}-urea]	< 1000 nM and 51 to 450 nM		101 to 850 nM
COc1cc2ncnc(NCCc3ncc(NC(=O)Nc4ccccc4)s3)c2cc1OC [Compound 47]	< 1000 nM and 1 to 50 nM		101 to 850 nM
COc1cc2ncnc(NCCc3cnc(NC(=O)Nc4cccc(F)c4)s3)c2cc1OC [Compound 56]	< 1000 nM and 51 to 450 nM		101 to 850 nM
CN(C)Cc1ccccc1NC(=O)Nc1ccc(CCNc2ncnc3oc(-c4ccccc4)nc23)cc1 [Compound 72]	< 1000 nM and 51 to 450 nM		
O=C(Nc1ccccc1)Nc1ncc(CCNc2ncnc3oc(-c4ccccc4)nc23)s1 [Compound 81]	< 1000 nM and 51 to 450 nM		
COc1cc2ncc(C#N)c(NCCc3ccc(NC(=O)Nc4ccccc4)cc3)c2cc1OC [Compound 140]	< 1000 nM and 51 to 450 nM		
N#Cc1cnc2ccsc2c1NCCc1cnc(NC(=O)Nc2cccc(Cl)c2)s1 [Compound 190, 1-(3-chlorophenyl)-3-(5-(2-(6-cyanothieno[3,2-b]pyridin-7-ylamino)ethyl)thiazol-2-yl)urea]	< 1000 nM and 51 to 450 nM		
CN(C)CCCOc1ccc2c(NCCc3ccc(NC(=O)Nc4ccccc4)cc3)ncnc2c1 [Compound 202]	51 to 450 nM and < 1000 nM		
COc1ccc(-c2nc3c(NCCc4ccc(NC(=O)Nc5ccccc5)cc4)ncnc3o2)cc1 [Compound 206]	< 1000 nM and 51 to 450 nM		101 to 850 nM
COc1ccc2c(NCCc3ccc(NC(=O)Nc4ccccc4)cc3)c(C#N)cnc2c1 [Compound 212]	51 to 450 nM and < 1000 nM		101 to 850 nM
COc1ccc2c(NCCc3ccc(NC(=O)Nc4cccc(Cl)c4)cc3)c(C#N)cnc2c1 [Compound 213]			101 to 850 nM
O=C(Nc1ccccc1)Nc1ccc(CCNc2ncnc3oc(-c4ccc(O)cc4)nc23)cc1 [Compound 220]	1 to 50 nM and < 1000 nM		101 to 850 nM
O=C(Nc1ccccc1)Nc1ccc(CCNc2ncnc3oc(-c4cccnc4)nc23)cc1 [Compound 222]	51 to 450 nM and < 1000 nM		101 to 850 nM
COc1cc2ncnc(NCCc3ccc(Nc4nc5ccccc5[nH]4)cc3)c2cc1OC [Compound 224]	1 to 50 nM and < 1000 nM		101 to 850 nM
COc1cc2ncc(C#N)c(NCCc3ccc(NC(=O)Nc4cccc(F)c4)cc3)c2cc1OC [Compound 225]	51 to 450 nM and < 1000 nM		101 to 850 nM
COc1cc2ncc(C#N)c(NCCc3ccc(NC(=O)NC4CC4)cc3)c2cc1OC [Compound 226]	51 to 450 nM and < 1000 nM		
COc1cc2ncc(C#N)c(NCCc3cnc(NC(=O)Nc4ccccc4)s3)c2cc1OC [Compound 227]	51 to 450 nM and < 1000 nM		

Structure (SMILES)	IC50 (Aurora A)	IC50 (HCT-116 cells)	IC50 (HCT-116 cells; 96-h incubation, MTS)
COc1cc2ncnc(NCCc3cnc(NC(=O)Nc4cccc(Cl)c4)s3)c2cc1OC [Compound 228]	1 to 50 nM and < 1000 nM		< 100 nM
N#Cc1cnc2cc(O)ccc2c1NCCc1ccc(NC(=O)Nc2ccccc2)cc1 [Compound 229]			101 to 850 nM
COc1cc2ncnc(NCCc3ccc(NC(=O)NC4CC4)cc3)c2cc1OC [Compound 230]	< 1000 nM		
COc1ccc2ncc(C#N)c(NCCc3ccc(NC(=O)Nc4ccccc4)cc3)c2c1 [Compound 231]	51 to 450 nM and < 1000 nM		101 to 850 nM
COc1cc2ncnc(OCCc3ccc(NC(=O)Nc4ccccc4)cc3)c2cc1OC [Compound 232]	1 to 50 nM and < 1000 nM		101 to 850 nM
O=C(Nc1ccccc1)Nc1ccc(CCNc2ncnc3oc(-c4ccncc4)nc23)cc1 [Compound 235]	1 to 50 nM and < 1000 nM		
O=C(Nc1ccccc1)Nc1ccc(CCNc2ncnc3oc(-c4ccncc4)nc23)cc1 [Compound 236]	51 to 450 nM and < 1000 nM		101 to 850 nM
O=C(Nc1ccccc1)Nc1ccc(CCNc2ncnc3oc(-c4ccccn4)nc23)cc1 [Compound 237]	1 to 50 nM and < 1000 nM		101 to 850 nM
COc1cc2ncnc(N(C)CCc3ccc(NC(=O)Nc4ccccc4)cc3)c2cc1OC [Compound 240]	51 to 450 nM and < 1000 nM		< 100 nM
O=C(Nc1cccc(F)c1)Nc1ncc(CCNc2ncnc3oc(-c4ccccc4)nc23)s1 [Compound 241]	51 to 450 nM and < 1000 nM		
O=C(Nc1cccc(Cl)c1)Nc1ncc(CCNc2ncnc3oc(-c4ccccc4)nc23)s1 [Compound 242]	51 to 450 nM and < 1000 nM		
COc1cc2ncnc(NCCc3ccc(NC(=O)Nc4cc(F)cc(F)c4)cc3)c2cc1OC [Compound 244]	1 to 50 nM and < 1000 nM		< 100 nM
COc1cc2ncnc(NCCc3ccc(NC(=O)Nc4cc(F)cc(F)c4)cc3)c2cc1OC [Compound 245]	1 to 50 nM and < 1000 nM		
COc1cc2ncnc(NCCc3ccc(NC(=O)Nc4ccccc4F)cc3)c2cc1OC [Compound 246]	51 to 450 nM and < 1000 nM		101 to 850 nM
O=C(Nc1ccccc1)Nc1ccc(CCNc2ncnc3cc(N4CCOCC4)ccc23)cc1 [Compound 251]	1 to 50 nM and < 1000 nM		< 100 nM
COc1cc2ncnc(NCCc3cnc(NC(=O)Nc4cccc(Br)c4)s3)c2cc1OC [Compound 252]	1 to 50 nM and < 1000 nM		101 to 850 nM

Continued, values first:

IC50 (Aurora A)	IC50 (HCT-116 cells)	IC50 (HCT-116 cells; 96-h incubation, MTS)	Structure (SMILES)
1 to 50 nM and < 1000 nM	< 100 nM		COc1cc2ncnc(NCCc3ccc(NC(=O)Nc4ccccc4)cc3)c2cc1OC [Compound 1, 1-(4-(2-(6,7-dimethoxyquinazolin-4-ylamino)ethyl)phenyl)-3-phenylurea]
< 1000 nM and 51 to 450 nM		101 to 850 nM	COc1cc2ncnc(NCCc3ccc(NC(=O)Nc4cccnc4)cc3)c2cc1OC [Compound 2, 1-{4-[2-(6,7-Dimethoxy-quinazolin-4-ylamino)-ethyl]-phenyl}-3-pyridin-3-yl-urea]
< 1000 nM and 51 to 450 nM		< 100 nM	COc1cc2ncnc(NCCc3ccc(NC(=O)Nc4cccc(F)c4)cc3)c2cc1OC [Compound 5, 1-{4-[2-(6,7-Dimethoxy-quinazolin-4-ylamino)-ethyl]-phenyl}-3-(3-fluoro-phenyl)-urea]
< 1000 nM and 51 to 450 nM			O=C(Nc1ccccc1)Nc1ccc(CCNc2ncnc3cc(OCCCCl)ccc23)cc1 [Compound 6, 1-(4-{2-[7-(3-Chloro-propoxy)-quinazolin-4-ylamino]-ethyl}-phenyl)-3-phenyl-urea]
< 1000 nM and 1 to 50 nM		< 100 nM	CCN(CCO)CCCOc1ccc2c(NCCc3ccc(NC(=O)Nc4ccccc4)cc3)ncnc2c1 [Compound 20]
< 1000 nM and 1 to 50 nM		101 to 850 nM	CCN(CCO)CCCOc1ccc2c(NCCc3ccc(NC(=O)Nc4cccc(F)c4)cc3)ncnc2c1 [Compound 22]
1 to 50 nM and < 1000 nM			COc1cc2ncnc(NCCc3ccc(NC(=O)Nc4ccccc4)cc3)c2cc1OC [Compound 201]
51 to 450 nM and < 1000 nM			CCN(CCO)CCCOc1ccc2c(NCCc3ccc(NC(=O)Nc4ccccc4)cc3)ncnc2c1 [Compound 203]
1 to 50 nM and < 1000 nM		101 to 850 nM	COc1cc2ncnc(NCCc3ccc(NC(=O)Nc4cccc(C(F)(F)F)c4)cc3)c2cc1OC [Compound 204]
< 1000 nM and 51 to 450 nM		101 to 850 nM	COc1cccc(NC(=O)Nc2ccc(CCNc3ncnc4cc(OC)c(OC)cc34)cc2)c1 [Compound 205]
< 1000 nM and 51 to 450 nM		101 to 850 nM	CN(C)CCCOc1ccc2c(NCCc3ccc(NC(=O)Nc4cccc(F)c4)cc3)ncnc2c1 [Compound 207]
< 1000 nM and 51 to 450 nM			CN(C)CCCOc1ccc2c(NCCc3ccc(NC(=O)Nc4cccc(F)c4)cc3)ncnc2c1 [Compound 208]
1 to 50 nM and < 1000 nM			CCN(CCO)CCCOc1ccc2c(NCCc3ccc(NC(=O)Nc4cccc(F)c4)cc3)ncnc2c1 [Compound 209]
1 to 50 nM and < 1000 nM		< 100 nM	COc1cc2ncnc(NCCc3ccc(NC(=O)Nc4ccc(F)cc4)cc3)c2cc1OC [Compound 210]
1 to 50 nM and < 1000 nM			COc1cc2ncnc(NCCc3ccc(NC(=O)Nc4ccc(F)cc4)cc3)c2cc1OC [Compound 211]
51 to 450 nM and < 1000 nM		< 100 nM	CN(C)c1ccc2c(NCCc3ccc(NC(=O)Nc4ccccc4)cc3)ncnc2c1 [Compound 233]
1 to 50 nM and < 1000 nM		101 to 850 nM	COc1cc2ncnc(NCCc3ccc(NC(=O)Nc4ccc(F)c(F)c4)cc3)c2cc1OC [Compound 247]
51 to 450 nM and < 1000 nM	< 100 nM		O=C(Nc1ccccc1)Nc1ccc(CCNc2ncnc3ccccc23)cc1 [Compound 248]
1 to 50 nM and < 1000 nM			O=C(Nc1ccccc1)Nc1ccc(CCNc2ncnc3ccccc23)cc1 [Compound 249]
51 to 450 nM and < 1000 nM		101 to 850 nM	O=C(Nc1ccc(CCNc2ncnc3oc(-c4ccncc4)nc23)cc1)Nc1cccc(F)c1 [Compound 250]
